Test results from patent US6489098B1, “Means and methods for monitoring nucleoside reverse transcriptase inhibitor antiretroviral therapy and guiding therapeutic decisions in the treatment of HIV/AIDS” (ViroLogic, Inc., priority 1998, dated 2002).
Values joined by “and” are separate entries in the source; they are usually repeats but may differ in a detail not shown here. Equal values may be shown once. “Also recorded” adds a separate entry of the source.

What was measured:
[1] = tested on: HIV-1 RT mutant resistance test vector A62V; test: Phenotypic susceptibility assay, site directed RTV A62V; type: cell-based; settings: RTV with A62V vs wild type RTV; for Average fold reduction in susceptibility: 3 replicates
Experimental: (§1) Resistance tests were carried out with resistance test vectors using two host cell types. Resistance test vector viral particles were produced by a first host cell (the resistance test vector host cell) that was prepared by transfecting a packaging host cell with the resistance test vector and the packaging expression vector. The resistance test vector viral particles were then used to infect a second host cell (the target host cell) in which the expression of the indicator gene is measured.
(§2) The resistance test vectors containing a functional luciferase gene cassette were constructed and host cells were transfected with the resistance test vector DNA. The resistant test vectors contained patient-derived reverse transcriptase and protease sequences that were either susceptible or resistant to the antiretroviral agents, such as nucleoside reverse transcriptase inhibitors, non-nucleoside reverse transcriptase inhibitors and protease inhibitors. The resistance test vector viral particles produced by transfecting the resistance test vector DNA into host cells, either in the presence or absence of protease inhibitors, were used to infect target host cells grown either in the absence of NRTI or NNRTI or In the presence of increasing concentrations of the drug. The amount of luciferase activIty produced in infected target host cells in the presence of drug was compared to the amount of luciferase produced in infected target host cells in the absence of drug. Drug resistance was measured as the amount of drug required to inhibit by 50% the luciferase activity detected in the absence of drug (Inhibitory concentration 50%, IC50). The IC50 values were determined by plotting percent drug inhibition vs. log 10 drug concentration.
(§3) Host cells were seeded in 10-cm-diameter dishes and were transfected several days after plating with resistance test vector plasmid DNA and the envelope expression vector. Transfections were performed using a calcium-phosphate precipitation procedure. The cell culture media containing the DNA precipitate was replaced with fresh medium, from one to 24 hours, after transfection. Cell culture media containing resistance test vector viral particles was harvested one to four days after transfection and was passed through a […] filter before being stored at −80° C. HIV capsid protein (p24) levels in the harvested cell culture media were determined by an EIA method as described by the manufacturer (SIAC; Frederick, Md.). Before infection, target cells (293 and 293/T) were plated in cell culture media. Control infections were performed using cell culture media from mock transfections (no DNA) or transfections containing the resistance test vector plasmid DNA without the envelope expression plasmid. One to three or more days after infectIon the media was removed and cell lysis buffer (Promega) was added to each well. Cell lysates were assayed for luciferase activity (FIG. 3). The inhibitory effect of the drug was determined using the following equation:
(§4) % luciferase inhibition=1−(RLUluc[drug]÷RLUluc)×100
(§5) where RLUluc [drug] is the relative light unit of luciferase activity in infected cells in the presence of drug and RLUluc is the Relative Light Unit of luciferase activity in infected cells in the absence of drug. IC50 values were obtained from the sigmoidal curves that were generated from the data by plotting the percent inhibition of luciferase activity vs. the log 10 drug concentration. The drug inhibition curves are shown in (FIG. 3).
(§6) Genotypic changes that are observed to correlate with changes in phenotypic patterns of drug susceptibility are evaluated by construction of resistance test vectors containing the specific mutation on a defined, wild-type (drug susceptible) genetic background. Mutations may be incorporated alone and/or in combination with other known drug resistance mutations that are thought to modulate the susceptibility of HIV to a certain drug or class of drugs. […]

[2] = tested on: HIV-1 RT mutant resistance test vector A62V+T69SSA; test: Phenotypic susceptibility assay, site directed RTV A62V+T69SSA; type: cell-based; settings: for Average fold reduction in susceptibility: RTV with 62 + 69 (A62V+T69SSA), 4 replicates; for effect on susceptibility (words): RTV with A62V+T69SSA, compared with T69SSA alone
Experimental: as §1, §2, §3, §4, §5, §6

[3] = tested on: HIV-1 RT mutant resistance test vector A62V+T69SSA+V75I; test: Phenotypic susceptibility assay, site directed RTV A62V+T69SSA+V75I; type: cell-based; settings: for Average fold reduction in susceptibility: RTV with 62 + 69 + 751 (A62V, T69SSA, V75I), 1 replicate; for effect on susceptibility (words): RTV with A62V+T69SSA+V75I
Experimental: as §1, §2, §3, §4, §5, §6

[4] = tested on: HIV-1 RT mutant resistance test vector 41 + 215 (M41L and T215Y); test: Phenotypic susceptibility assay, site directed RTV 41 + 215; type: cell-based; settings: RTV with 41 + 215; 4 replicates
Experimental: as §1, §2, §3, §4, §5, §6

[5] = tested on: HIV-1 RT mutant resistance test vector 41 + 210 + 215; test: Phenotypic susceptibility assay, site directed RTV 41 + 210 + 215; type: cell-based; settings: RTV with 41 + 210 + 215; 3 replicates
Experimental: as §1, §2, §3, §4, §5, §6

[6] = tested on: HIV-1 RT mutant resistance test vector M41L-A62V-T69SSA-T215Y-RTV; test: Phenotypic susceptibility assay, site directed RTV M41L+A62V+T69SSA+T215Y; type: cell-based; settings: RTV with M41L+A62V+T69SSA+T215Y; addition of A62V to M41L+T69SSA+T215Y
Experimental: as §1, §2
as §3, with “Cell lysates were assayed for luciferase activity (FIG. 3).” left out
as §4
as §5, with “concentration.” for “concentration. The drug inhibition curves are shown in (FIG. 3).”
Mutations may be incorporated alone and/or in combination with other known drug resistance mutations that are thought to modulate the susceptibility of HIV to a certain drug or class of drugs. Mutations are introduced into the resistance test vector through any of the widely known methods for site-directed mutagenesis. In one embodiment of this invention the mega-primer PCR method for site-directed mutagenesis is used.

[7] = tested on: HIV-1 RT mutant resistance test vector 41 + 62 + 69 + 75M + 210 + 215; test: Phenotypic susceptibility assay, site directed RTV 41 + 62 + 69 + 75M + 210 + 215; type: cell-based; settings: RTV with 41 + 62 + 69 + 75M + 210 + 215; 1 replicate
Experimental: as §1, §2, §3, §4, §5, §6

[8] = tested on: ZDV-resistant HIV isolates; settings: cited from earlier work

## Cc1cn([C@H]2C=C[C@@H](CO)O2)c(=O)[nH]c1=O [d4T, stavudine]
[1]
  effect on susceptibility (words): no differences in their susceptibility to d4T; also recorded: did not reduce d4T susceptibility; also recorded: had no affect on d4T susceptibility
  Average fold reduction in susceptibility: 0.84 fold
[2]
  Average fold reduction in susceptibility: 1.66 fold
  effect on susceptibility (words): no effect on the susceptibility to d4T; also recorded: did not reduce d4T susceptibility more than the T69SSA mutation alone
[3]
  Average fold reduction in susceptibility: 1.40 fold
  effect on susceptibility (words): did not reduce d4T susceptibility more than the T69SSA mutation alone
[4]
  Average fold reduction in susceptibility: 1.61 fold
[5]
  Average fold reduction in susceptibility: 1.94 fold
[6]
  effect on susceptibility (words): did reduce d4T susceptibility more than the T69SSA mutation alone; also recorded: further reduction in susceptibility
[7]
  Average fold reduction in susceptibility: 13.18 fold
[8]
  cross-resistance of ZDV-resistant strains: Cross-resistance

## Nc1ccn([C@H]2CC[C@@H](CO)O2)c(=O)n1 [ddC, zalcitabine]
[1]
  Average fold reduction in susceptibility: 0.74 fold
[2]
  Average fold reduction in susceptibility: 1.74 fold
[3]
  Average fold reduction in susceptibility: 1.89 fold
[4]
  Average fold reduction in susceptibility: 1.21 fold
[5]
  Average fold reduction in susceptibility: 1.36 fold
[6]
  effect on susceptibility (words): no effect on susceptibility
[7]
  Average fold reduction in susceptibility: 2.09 fold
[8]
  cross-resistance of ZDV-resistant strains: no evidence that mutations selected for during ZDV monotherapy influence sensitivity

## Cc1cn([C@H]2C[C@H](N=[N+]=[N-])[C@@H](CO)O2)c(=O)[nH]c1=O [AZT, zidovudine]
[1]
  effect on susceptibility (words): slight increases in susceptibility to AZT; also recorded: had no effect on AZT susceptibility; also recorded: had no affect on AZT susceptibility
  Average fold reduction in susceptibility: 1.25 fold
[2]
  Average fold reduction in susceptibility: 6 fold and 7 fold and approximately six-fold and 6.87 fold
  effect on susceptibility (words): further reduce AZT susceptibility
[3]
  Average fold reduction in susceptibility: 2 fold and 0.71 fold
  effect on susceptibility (words): completely suppressed the reduced AZT susceptibility; also recorded: completely suppressed the six-fold AZT resistance
[4]
  Average fold reduction in susceptibility: 17.82 fold
[5]
  Average fold reduction in susceptibility: 56.14 fold
[6]
  effect on susceptibility (words): reduced AZT susceptibility more than the combination of M41L and T215Y mutations alone; also recorded: further reduction in susceptibility
[7]
  Average fold reduction in susceptibility: >1000 fold

## Nc1nc(NC2CC2)c2ncn([C@H]3C=C[C@@H](CO)C3)c2n1 [ABC, abacavir]
[1]
  Average fold reduction in susceptibility: 0.59 fold
[2]
  Average fold reduction in susceptibility: 2.71 fold
[3]
  Average fold reduction in susceptibility: 2.56 fold
[4]
  Average fold reduction in susceptibility: 1.68 fold
[5]
  Average fold reduction in susceptibility: 2.25 fold
[6]
  effect on susceptibility (words): no effect on susceptibility
[7]
  Average fold reduction in susceptibility: 15.53 fold

## O=c1[nH]cnc2c1ncn2[C@H]1CC[C@@H](CO)O1 [ddI, didanosine]
[1]
  Average fold reduction in susceptibility: 0.84 fold
[2]
  Average fold reduction in susceptibility: 1.54 fold
[3]
  Average fold reduction in susceptibility: 1.17 fold
[4]
  Average fold reduction in susceptibility: 1.09 fold
[5]
  Average fold reduction in susceptibility: 1.08 fold
[6]
  effect on susceptibility (words): further reduction in susceptibility
[7]
  Average fold reduction in susceptibility: 3.10 fold
[8]
  cross-resistance of ZDV-resistant strains: no evidence that mutations selected for during ZDV monotherapy influence sensitivity
